Experimental data: PMC12531871, “Indole-2-carboxamides Optimization for Antiplasmodial Activity” (ACS Bio & Med Chem Au, 2025)
≈ marks a conversion by molar mass, not a printed value. Like-named read-outs stand apart in the source and are kept apart here.

What was measured:
[1] = tested on: P. falciparum 3D7 strain (Pf3D7); test: Antiplasmodial activity against P. falciparum 3D7 blood-stage parasites (SYBR Green, 72 h); type: cell-based, Plasmodium falciparum; conditions: for IC50: Plasmodium falciparum; for Pf3D7-IC50 compared to 6a: regio-isomers compared to 6a
Rat hepatocyte stability = type: in vitro ADME; conditions: rat hepatocyte stability
Procedure: The reaction was terminated with the addition of ice-cold MeCN at designated time points. The samples were then centrifuged (4200 rpm) for 20 min at 20 °C, and the supernatant was half diluted in water and then analyzed using LCMS/MS. The % parent compound remaining, half-life (t 1/2), and clearance (CLint) were calculated using standard methodology. The experiment was carried out in duplicate. Diltiazem, 7-Ethoxy Coumarin, Propranolol, and Midazolam were used as reference standards.

[2] = Human liver microsome stability; type: in vitro ADME; conditions: human, pooled human liver microsomes, human microsomal intrinsic clearance; read-out: hMics, human microsome Clint
Procedure: A solution of the test compounds in phosphate buffer solution (1 μM) was incubated in pooled human or mouse liver microsomes (0.5 mg/mL) for 0, 5, 20, 30, 45, and 60 min at 37 °C in the presence and absence of an NADPH regeneration system (NRS). The tests were conducted by […], India. The reaction was terminated with the addition of ice-cold acetonitrile, containing a […] standard, at designated time points. The sample was centrifuged (4200g) for 20 min at 20 °C and the supernatant was diluted by half in water and then analyzed by LC-MS/MS. The % parent compound remaining, half-life (t 1/2) and clearance (CLint) were calculated using standard methodology. The experiment was carried out in duplicate. Verapamil, diltiazem, phenacetin, and imipramine were used as reference standards.

[3] = eLogD at pH 7.4, miniaturized shake flask method; type: physicochemical; conditions: 1-octanol/PBS (1:1, v/v), pH 7.4, pH 7.4, miniaturized shake flask method
Procedure: eLogD at pH 7.4 was determined using a miniaturized shake flask method. A solution of a presaturated mixture of 1-octanol and phosphate-buffered saline (PBS) (1:1, v/v) and the test compound (75 μM) was incubated at 25 °C with constant shaking (850 rpm) for 2h. After incubation, the organic and aqueous phases were separated, and samples of each phase were transferred to a plate for dilution. […] The samples were quantitated using LC-MS/MS. The experiment was carried out in duplicate. Propranolol, Amitriptyline, and Midazolam were used as reference standards.

[4] = Kinetic solubility at pH 7.4; type: physicochemical; conditions: phosphate-buffered saline, 25 °C, pH 7.4, aqueous buffer, kinetic from dmso stock; read-out: Kinetic solubility (Sol)
Procedure: Kinetic solubility assay was performed using UV–vis detection. […] The samples were filtered using a multiscreen solubility filter plate. The filtrate was diluted by 50% with MeCN. A five-point linearity curve was prepared in PBS/MeCN (1:1, v/v) at 200, 150, 75, 25, and 2.5 μM. Blank, linearity, and test samples (n = 2) were transferred to a UV-readable plate, and the plate was scanned for absorbance. Best-fit calibration curves were constructed using the calibration standards and used to determine the test sample solubility. The experiment was carried out in duplicate. Diethylstilbestrol, Haloperidol, and Diclofenac Sodium were used as reference standards.

[5] = Resazurin assay for cytotoxicity in HepG2 cells; type: cell-based, human; conditions: human, HepG2 cells; HepG2 cell line, 72 h, resazurin
Procedure: HepG2 cells were trypsinized, counted, and distributed in a 96-well plate at a density of 30,000 cells per well (180 μL). The plate was incubated at 37 °C and 5% CO2 for 24 h. Following incubation, 20 μL of serial dilutions of the tested compounds were added to the wells, with concentrations ranging from 30 to 0.47 μM. The plate was incubated for an additional 72 h at 37 °C and 5% CO2. Untreated cells served as positive controls, while wells containing only medium were used as negative controls. Postincubation, microscopy was employed to determine the highest compound concentration for treatment results. […] Concentration–response curves were generated, and half-maximal inhibitory concentration (CC50) values were determined using nonlinear regression analysis.

P. falciparum Dd2 strain = test: Antiplasmodial activity against resistant P. falciparum Dd2; type: cell-based; conditions: Plasmodium falciparum, 3D7 / DD2; resistant Dd2, in parallel with 3D7; read-out: IC50^Dd2 ± SD
P. falciparum K1 strain = test: Antiplasmodial activity against resistant P. falciparum K1; type: cell-based; conditions: Plasmodium falciparum, 3D7 / K1; resistant K1, in parallel with 3D7; read-out: IC50^K1 ± SD
[6] = 3D7, 72 h, 3D7 strain, 72 h, SYBR Green, read-out: Pf3D7-IC50
[7] = 3D7 / DD2, sensitive 3D7, in parallel with K1 and Dd2, read-out: IC50^3D7 ± SD

| IC50 [1, 6] [µM] | R Heps (Clint) (Rat hepatocyte stability) [μL/min/10^6] | microsomal CLint at 1 μM [2] [µL/min/mg] | logD at 2 h [3] | solubility kinetic at 2 h [4] [µM] | Structure (SMILES) | also measured |
| --- | --- | --- | --- | --- | --- | --- |
| 1 ± 0.2 | 8 | 10 | 0.7 | 196 (≈ 72.3 µg/mL) | O=C(c1cc2cc(Cl)ccc2[nH]1)N(Cc1cccnc1)C[C@@H]1CCNC1 [6a (R), 5-Chloro-N-(3-pyridylmethyl)-N-[[(3R)-pyrrolidin-3-yl]methyl]-1H-indole-2-carboxamide] | CC50 at 72 h [5]: > 30 µM |
| 2 ± 0.4 | 12 | 3 | 0.7 | 196 (≈ 72.3 µg/mL) | O=C(c1cc2cc(Cl)ccc2[nH]1)N(Cc1cccnc1)C[C@H]1CCNC1 [6a (S), 5-Chloro-N-(3-pyridylmethyl)-N-[[(3S)-pyrrolidin-3-yl]methyl]-1H-indole-2-carboxamide] | CC50 at 72 h [5]: > 30 µM |
| > 10 |  |  |  |  | O=C(c1cc2cc(Cl)ccc2[nH]1)N(Cc1cccnc1)CC1CCOC1 (centres unmarked) [Compound 5r, 5-Chloro-N-(pyridin-3-ylmethyl)-N-((tetrahydrofuran-3-yl)methyl)-1H-indole-2-carboxamide] |  |
| > 10 |  |  |  |  | O=C1CC(CN(Cc2cccnc2)C(=O)c2cc3cc(Cl)ccc3[nH]2)CN1 (centres unmarked) [Compound 5s, 5-Chloro-N-[(5-oxopyrrolidin-3-yl)methyl]-N-(3-pyridylmethyl)-1H-indole-2-carboxamide] |  |
| 8.3 ± 0.2 |  |  |  |  | O=C(c1cc2ccccc2[nH]1)N(Cc1cccnc1)CC1CCNC1 (centres unmarked) [Compound 6b, N-(3-Pyridylmethyl)-N-(pyrrolidin-3-ylmethyl)-1H-indole-2-carboxamide] |  |
| 2.2 ± 0.3 | 60 | 4 | 0.2 | > 1000 | O=C(c1cc2cccc(Cl)c2[nH]1)N(Cc1cccnc1)CC1CCNC1 (centres unmarked) [Compound 6c, 7-Chloro-N-(3-pyridylmethyl)-N-(pyrrolidin-3-ylmethyl)-1H-indole-2-carboxamide] | IC50 [1, 7]: 2.3 ± 0.6 µM; IC50 (P. falciparum Dd2 strain): 8.2 ± 0.3 µM; IC50 (P. falciparum K1 strain): 4.9 ± 0.6 µM |
| 8.8 ± 0.1 | 32 | 7 | -0.1 | > 1000 | O=C(c1cc2cc(F)ccc2[nH]1)N(Cc1cccnc1)CC1CCNC1 (centres unmarked) [Compound 6e, 5-Fluoro-N-(3-pyridylmethyl)-N-(pyrrolidin-3-ylmethyl)-1H-indole-2-carboxamide] |  |
| 5.8 |  |  |  |  | Cc1c(C(=O)N(Cc2cccnc2)CC2CCNC2)[nH]c2ccc(Cl)cc12 (centres unmarked) [Compound 6g, 5-Chloro-3-methyl-N-(3-pyridylmethyl)-N-(pyrrolidin-3-ylmethyl)-1H-indole-2-carboxamide] | IC50 [1, 7]: 4.2 ± 0.5 µM; IC50 (P. falciparum Dd2 strain): 9 ± 0.7 µM; IC50 (P. falciparum K1 strain): 6.3 ± 0.3 µM |
| > 10 |  |  |  |  | O=C(c1c[nH]c2ccc(Cl)cc12)N(Cc1cccnc1)CC1CCNC1 (centres unmarked) [Compound 6h, 5-Chloro-N-(3-pyridylmethyl)-N-(pyrrolidin-3-ylmethyl)-1H-indole-3-carboxamide] |  |
| > 10 |  |  |  |  | O=C(c1nc2cc(Cl)ccc2[nH]1)N(Cc1cccnc1)CC1CCNC1 (centres unmarked) [Compound 6i, 5-Chloro-N-(3-pyridylmethyl)-N-(pyrrolidin-3-ylmethyl)-1H-benzimidazole-2-carboxamide] |  |
| > 25 |  |  |  |  | O=C(c1cccc(Cl)c1)N(Cc1cccnc1)CC1CCNC1 (centres unmarked) [Compound 6j, 3-Chloro-N-(pyridin-3-ylmethyl)-N-(pyrrolidin-3-ylmethyl)benzamide] |  |
| 6.7 ± 0.3 |  |  |  |  | O=C(c1cc2cc(Cl)ccc2[nH]1)N(Cc1ccccc1)CC1CCNC1 (centres unmarked) [Compound 6k, N-Benzyl-5-chloro-N-(pyrrolidin-3-ylmethyl)-1H-indole-2-carboxamide] |  |
| 12.8 ± 0.8 |  |  |  |  | O=C(c1cc2cc(Cl)ccc2[nH]1)N(Cc1ccncc1)CC1CCNC1 (centres unmarked) [Compound 6l, 5-Chloro-N-(4-pyridylmethyl)-N-(pyrrolidin-3-ylmethyl)-1H-indole-2-carboxamide] | Pf3D7-IC50 compared to 6a [1]: > 10 fold |
| 14.1 ± 0.6 |  |  |  |  | O=C(c1cc2cc(Cl)ccc2[nH]1)N(Cc1ccccn1)CC1CCNC1 (centres unmarked) [Compound 6m, 5-Chloro-N-(2-pyridylmethyl)-N-(pyrrolidin-3-ylmethyl)-1H-indole-2-carboxamide] | Pf3D7-IC50 compared to 6a [1]: > 10 fold |
| > 10 |  |  |  |  | O=C(c1cc2cc(Cl)ccc2[nH]1)N(Cc1cnccn1)CC1CCNC1 (centres unmarked) [Compound 6n, 5-Chloro-N-(pyrazin-2-ylmethyl)-N-(pyrrolidin-3-ylmethyl)-1H-indole-2-carboxamide] |  |
| 4.3 ± 0.2 | 10 | 3 | 1.5 | 883 (≈ 386 µg/mL) | O=C(c1cc2cc(Cl)ccc2[nH]1)N(Cc1ccc(C(F)(F)F)nc1)CC1CCNC1 (centres unmarked) [Compound 6o, 5-Chloro-N-(pyrrolidin-3-ylmethyl)-N-[[6-(trifluoromethyl)-3-pyridyl]methyl]-1H-indole-2-carboxamide] |  |
| > 10 |  |  |  |  | CS(=O)(=O)c1ccc(CN(CC2CCNC2)C(=O)c2cc3cc(Cl)ccc3[nH]2)cn1 (centres unmarked) [Compound 6p, 5-Chloro-N-[(6-methylsulfonyl-3-pyridyl)methyl]-N-(pyrrolidin-3-ylmethyl)-1H-indole-2-carboxamide] |  |
| > 10 |  |  |  |  | CNCCN(CC1CCNC1)C(=O)c1cc2cc(Cl)ccc2[nH]1 (centres unmarked) [Compound 6q, 5-Chloro-N-[2-(methylamino)ethyl]-N-(pyrrolidin-3-ylmethyl)-1H-indole-2-carboxamide] |  |
| 1.8 ± 0.2 | 29 | 20 | 2.6 | 148 (≈ 50.7 µg/mL) | CNCCN(Cc1cccnc1)C(=O)c1cc2cc(Cl)ccc2[nH]1 [Compound 6u, 5-Chloro-N-[2-(methylamino)ethyl]-N-(3-pyridylmethyl)-1H-indole-2-carboxamide] |  |
| 0.57 ± 0.07 | 17 | < 3 | 0.9 | > 1000 | O=C(c1cc2cc(Cl)ccc2[nH]1)N(Cc1cccnc1)C1CCNC1 (centres unmarked) [Compound 6v, 5-Chloro-N-(3-pyridylmethyl)-N-pyrrolidin-3-yl-1H-indole-2-carboxamide] |  |
| 0.9 ± 0.1 | 9 | < 3 | 0.5 | > 1000 | O=C(c1cc2cc(Cl)ccc2[nH]1)N(Cc1cccnc1)CC1CCNCC1 [Compound 6w, 5-Chloro-N-(4-piperidylmethyl)-N-(3-pyridylmethyl)-1H-indole-2-carboxamide] |  |
| 0.46 ± 0.05 | 28 | 20 | 1.6 | 190 (≈ 72.8 µg/mL) | CN1CCC(CN(Cc2cccnc2)C(=O)c2cc3cc(Cl)ccc3[nH]2)C1 (centres unmarked) [Compound 7a, 5-Chloro-N-[(1-methylpyrrolidin-3-yl)methyl]-N-(pyridin-3-ylmethyl)-1H-indole-2-carboxamide] | IC50 [1, 7]: 0.8 ± 0.2 µM; IC50 (P. falciparum Dd2 strain): 2.2 ± 0.3 µM; IC50 (P. falciparum K1 strain): 1.2 ± 0.3 µM |
